Measurements published in patent US9758517B2, “Histone demethylase inhibitors” (Quanticel Pharmaceuticals, Inc., priority 2014, dated 2017).

Target: JMJD2C (Homo sapiens (Human), UniProt Q9H3R0)
Assay: In vitro enzyme inhibition assay, JMJD2C demethylase activity (TR-FRET)
Format: biochemical
Settings: 0.3 nM JMJD2C, 300 nM H3K9me3-biotin peptide, 2 μM alpha-ketoglutaric acid, 30 minutes at room temperature
Protocol: This assay determines the ability of a test compound to inhibit JMJD2C demethylase activity. Baculovirus expressed JMJD2C (GenBank Accession #BC143571, AA 2-372) was purchased from BPS Bioscience (Cat#50105).
The ability of test compounds to inhibit the activity of JMJD2C was determined in 384-well plate format under the following reaction conditions: 0.3 nM JMJD2C, 300 nM H3K9me3-biotin labeled peptide (Anaspec cat #64360), 2 μM alpha-ketoglutaric acid in assay buffer of 50 mM HEPES, pH7.3, 0.005% Brij35, 0.5 mM TCEP, 0.2 mg/ml BSA, 50 μM sodium L-ascorbate, and 2 μM ammonium iron(II) sulfate. Reaction product was determined quantitatively by TR-FRET after the addition of detection reagent Phycolink Streptavidin-allophycocyanin (Prozyme) and Europium-anti-di-methylated histone H3 lysine 9 (H3K9me2) antibody (PerkinElmer) in the presence of 5 mM EDTA in LANCE detection buffer (PerkinElmer) at a final concentration of 50 nM and 1 nM, respectively.
The assay reaction was initiated by the following: 2 μL of the mixture of 900 nM H3K9me3-biotin labeled peptide and 6 μM alpha-ketoglutaric acid with 2 μL of 11-point serial diluted inhibitor in 3% DMSO were added to each well of the plate, followed by the addition of 2 μl of 0.9 nM JMJD2C to initiate the reaction. The reaction mixture was incubated at room temperature for 30 minutes, and terminated by the addition of 6 μL of 5 mM EDTA in LANCE detection buffer containing 100 nM Phycolink Streptavidin-allophycocyanin and 2 nM Europium-anti-H3K9me2 antibody. Plates were read by EnVisionMultilabel Reader in TR-FRET mode (excitation at 320 nm, emission at 615 nm and 665 nm) after 1 hour incubation at room temperature. A ratio was calculated (665/615) for each well and fitted to determine inhibition constant (IC50).

Sequence of JMJD2C (Q9H3R0 2-372): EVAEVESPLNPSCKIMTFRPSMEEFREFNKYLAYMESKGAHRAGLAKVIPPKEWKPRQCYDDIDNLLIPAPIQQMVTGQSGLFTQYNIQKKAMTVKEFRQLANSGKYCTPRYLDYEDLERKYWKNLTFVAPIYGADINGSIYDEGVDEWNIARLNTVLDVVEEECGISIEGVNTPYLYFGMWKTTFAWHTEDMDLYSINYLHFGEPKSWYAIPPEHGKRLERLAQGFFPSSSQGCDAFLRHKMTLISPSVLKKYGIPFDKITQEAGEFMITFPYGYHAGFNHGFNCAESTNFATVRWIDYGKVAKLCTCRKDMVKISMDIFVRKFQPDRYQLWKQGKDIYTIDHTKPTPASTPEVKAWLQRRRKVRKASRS

| SMILES | IC50 |
| --- | --- |
| COc1ccc2c(-c3cc4nccc(C(=O)O)c4[nH]3)n(C)nc2c1 [Example 1, 2-(6-Methoxy-2-methyl-2H-indazol-3-yl)-1H-pyrrolo[3,2-b]pyridine-7-carboxylic acid] | 100 to 1000 nM |
| COc1ccc2nn(C)c(-c3cc4nccc(C(=O)O)c4[nH]3)c2c1 [Example 2, 2-(5-Methoxy-2-methyl-2H-indazol-3-yl)-1H-pyrrolo[3,2-b]pyridine-7-carboxylic acid] | 100 to 1000 nM |
| Cn1nc2cc(Cl)ccc2c1-c1cc2nccc(C(=O)O)c2[nH]1 [Example 3, 2-(6-Chloro-2-methyl-2H-indazol-3-yl)-1H-pyrrolo[3,2-b]pyridine-7-carboxylic acid] | 100 to 1000 nM |
| Cn1nc2ccc(C(F)(F)F)cc2c1-c1cc2nccc(C(=O)O)c2[nH]1 [Example 4, 2-[2-Methyl-5-(trifluoromethyl)-2H-indazol-3-yl]-1H-pyrrolo[3,2-b]pyridine-7-carboxylic acid] | 1000 to 10000 nM |
| Cn1nc2ccc(OC(F)(F)F)cc2c1-c1cc2nccc(C(=O)O)c2[nH]1 [Example 5, 2-[2-Methyl-5-(trifluoromethoxy)-2H-indazol-3-yl]-1H-pyrrolo[3,2-b]pyridine-7-carboxylic acid] | 1000 to 10000 nM |
| Cn1nc2ccc(C3CC3)cc2c1-c1cc2nccc(C(=O)O)c2[nH]1 [Example 6, 2-(5-Cyclopropyl-2-methyl-2H-indazol-3-yl)-1H-pyrrolo[3,2-b]pyridine-7-carboxylic acid] | 100 to 1000 nM |
| Cn1nc2ccc(Cl)cc2c1-c1cc2nccc(C(=O)O)c2[nH]1 [Example 7, 2-(5-Chloro-2-methyl-2H-indazol-3-yl)-1H-pyrrolo[3,2-b]pyridine-7-carboxylic acid] | 1000 to 10000 nM |
| CCn1nc2cc(Cl)ccc2c1-c1cc2nccc(C(=O)O)c2[nH]1 [Example 8, 2-(6-Chloro-2-ethyl-2H-indazol-3-yl)-1H-pyrrolo[3,2-b]pyridine-7-carboxylic acid] | 1000 to 10000 nM |
| O=C(O)c1ccnc2cc(-c3c4ccc(Cl)cc4nn3CC3CC3)[nH]c12 [Example 9, 2-[6-Chloro-2-(cyclopropylmethyl)-2H-indazol-3-yl]-1H-pyrrolo[3,2-b]pyridine-7-carboxylic acid] | 1000 to 10000 nM |
| O=C(O)c1ccnc2cc(-c3c4cc(Cl)ccc4nn3CCN3CCCC3)[nH]c12 [Example 10, 2-{5-Chloro-2-[2-(pyrrolidin-1-yl)ethyl]-2H-indazol-3-yl}-1H-pyrrolo[3,2-b]pyridine-7-carboxylic acid] | 100 to 1000 nM |
| CN(c1ccccc1)c1ccc2c(-c3cc4nccc(C(=O)O)c4[nH]3)n(C)nc2c1 [Example 11, 2-{2-methyl-6-[methyl(phenyl)amino]-2H-indazol-3-yl}-1H-pyrrolo[3,2-b]pyridine-7-carboxylic acid] | 100 to 1000 nM |
| CN(c1ccccc1)c1cccc2c(-c3cc4nccc(C(=O)O)c4[nH]3)n(C)nc12 [Example 12, 2-{2-methyl-7-[methyl(phenyl)amino]-2H-indazol-3-yl}-1H-pyrrolo[3,2-b]pyridine-7-carboxylic acid] | 1000 to 10000 nM |
| Cn1nc(-c2cc3nccc(C(=O)O)c3[nH]2)c2ccccc21 [Example 13, 2-(1-methyl-1H-indazol-3-yl)-1H-pyrrolo[3,2-b]pyridine-7-carboxylic acid] | 100 to 1000 nM |
| Cn1nc(-c2cc3nccc(C(=O)O)c3[nH]2)c2cc(F)ccc21 [Example 14, 2-(5-fluoro-1-methyl-1H-indazol-3-yl)-1H-pyrrolo[3,2-b]pyridine-7-carboxylic acid] | 100 to 1000 nM |
| Cn1nc(-c2cc3nccc(C(=O)O)c3[nH]2)c2ccc(Cl)cc21 [Example 15, 2-(6-chloro-1-methyl-1H-indazol-3-yl)-1H-pyrrolo[3,2-b]pyridine-7-carboxylic acid] | 100 to 1000 nM |
| Cn1nc(-c2cc3nccc(C(=O)O)c3[nH]2)c2ccc(F)cc21 [Example 16, 2-(6-fluoro-1-methyl-1H-indazol-3-yl)-1H-pyrrolo[3,2-b]pyridine-7-carboxylic acid] | 100 to 1000 nM |
| CCn1nc(-c2cc3nccc(C(=O)O)c3[nH]2)c2ccc(Cl)cc21 [Example 17, 2-(6-chloro-1-ethyl-1H-indazol-3-yl)-1H-pyrrolo[3,2-b]pyridine-7-carboxylic acid] | 1000 to 10000 nM |
| O=C(O)c1ccnc2cc(-c3nn(CC4CC4)c4cc(Cl)ccc34)[nH]c12 [Example 18, 2-[6-chloro-1-(cyclopropylmethyl)-1H-indazol-3-yl]-1H-pyrrolo[3,2-b]pyridine-7-carboxylic acid] | 1000 to 10000 nM |
| O=C(O)c1ccnc2cc(-c3nn(CC(F)(F)F)c4cc(Cl)ccc34)[nH]c12 [Example 19, 2-[6-chloro-1-(2,2,2-trifluoroethyl)-1H-indazol-3-yl]-1H-pyrrolo[3,2-b]pyridine-7-carboxylic acid] | 1000 to 10000 nM |
| O=C(O)c1ccnc2cc(-c3nn(CCN4CCCC4)c4ccc(Cl)cc34)[nH]c12 [Example 20, 2-{5-chloro-1-[2-(pyrrolidin-1-yl)ethyl]-1H-indazol-3-yl}-1H-pyrrolo[3,2-b]pyridine-7-carboxylic acid] | 100 to 1000 nM |
| O=C(O)c1ccnc2cc(-c3nn(CCN4CCOCC4)c4ccc(F)cc34)[nH]c12 [Example 21, 2-{5-fluoro-1-[2-(morpholin-4-yl)ethyl]-1H-indazol-3-yl}-1H-pyrrolo[3,2-b]pyridine-7-carboxylic acid] | 1000 to 10000 nM |
